Measurements as given in patent US12466827B2, “1,3,4-oxadiazole derivative compounds as histone deacetylase 6 inhibitor, and the pharmaceutical composition comprising the same” (CHONG KUN DANG PHARMACEUTICAL CORP., priority 2020, dated 2025).
pIC50: −log10 of the molar value.

Key:
human recombinant HDAC1 = biological target: T1, human recombinant HDAC1 (Homo sapiens, UniProt Q13547); experiment: In vitro HDAC enzyme activity inhibition assay (HDAC1); assay type: biochemical; conditions: Fluor de Lys-SIRT1 substrate 10 μM, 30° C., 60 minutes, fluorescence
T1 construct: purchased Enzo Life Sciences, Inc. BML-SE456
How it was run: (§1)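 Fluorimetric deacetylase kit: human recombinant HDAC1 or HDAC6 (0.3 μg) with 10 μM Fluor de Lys-SIRT1 substrate and 5-fold diluted compounds, 60 min at 30° C. Developer added for 30 min, fluorescence read at Ex 360/Em 460, IC50 calculated.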

human recombinant HDAC6 = biological target: T2, human recombinant HDAC6 (Homo sapiens, UniProt Q9UBN7); experiment: In vitro HDAC enzyme activity inhibition assay (HDAC6); assay type: biochemical; conditions: for HDAC6 selectivity (fold): HDAC6 over HDAC1; for pIC50: same protocol as the HDAC1 test, human recombinant HDAC6 (Calbiochem)
T2 construct: purchased Calbiochem Inc. 382180
T2 sequence (Q9UBN7 1-1215): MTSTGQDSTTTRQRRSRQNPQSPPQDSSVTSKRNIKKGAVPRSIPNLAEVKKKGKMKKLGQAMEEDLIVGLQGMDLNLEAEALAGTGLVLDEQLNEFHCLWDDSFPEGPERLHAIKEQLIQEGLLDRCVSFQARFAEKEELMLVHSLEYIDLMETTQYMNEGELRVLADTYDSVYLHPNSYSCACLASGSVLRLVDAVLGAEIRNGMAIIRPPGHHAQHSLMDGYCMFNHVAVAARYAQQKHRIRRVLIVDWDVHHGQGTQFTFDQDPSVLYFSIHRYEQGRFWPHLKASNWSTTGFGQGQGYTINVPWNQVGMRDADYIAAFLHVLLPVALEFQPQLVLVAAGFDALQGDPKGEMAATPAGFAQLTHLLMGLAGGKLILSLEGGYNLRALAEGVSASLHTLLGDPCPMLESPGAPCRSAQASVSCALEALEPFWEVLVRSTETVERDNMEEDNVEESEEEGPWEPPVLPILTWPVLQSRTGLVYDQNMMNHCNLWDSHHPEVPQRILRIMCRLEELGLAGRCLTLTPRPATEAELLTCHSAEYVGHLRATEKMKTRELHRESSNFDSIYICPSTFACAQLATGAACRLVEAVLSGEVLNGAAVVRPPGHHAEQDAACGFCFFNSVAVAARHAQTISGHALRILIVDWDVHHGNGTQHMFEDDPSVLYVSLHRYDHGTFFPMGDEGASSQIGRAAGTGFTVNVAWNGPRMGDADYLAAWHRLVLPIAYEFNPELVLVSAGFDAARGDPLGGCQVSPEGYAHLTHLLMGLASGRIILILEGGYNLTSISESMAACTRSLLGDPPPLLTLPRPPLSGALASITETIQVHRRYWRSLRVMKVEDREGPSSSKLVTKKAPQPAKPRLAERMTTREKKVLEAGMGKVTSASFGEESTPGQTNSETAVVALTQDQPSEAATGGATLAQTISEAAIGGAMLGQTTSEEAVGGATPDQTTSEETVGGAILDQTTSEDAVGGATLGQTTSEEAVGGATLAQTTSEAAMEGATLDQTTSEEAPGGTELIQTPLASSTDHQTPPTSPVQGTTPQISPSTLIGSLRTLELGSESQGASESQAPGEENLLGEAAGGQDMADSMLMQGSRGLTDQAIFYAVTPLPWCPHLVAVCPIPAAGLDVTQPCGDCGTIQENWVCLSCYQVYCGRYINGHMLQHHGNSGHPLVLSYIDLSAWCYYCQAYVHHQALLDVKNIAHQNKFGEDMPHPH
How it was run: as §1

T1 sequence (Q13547 whole entry): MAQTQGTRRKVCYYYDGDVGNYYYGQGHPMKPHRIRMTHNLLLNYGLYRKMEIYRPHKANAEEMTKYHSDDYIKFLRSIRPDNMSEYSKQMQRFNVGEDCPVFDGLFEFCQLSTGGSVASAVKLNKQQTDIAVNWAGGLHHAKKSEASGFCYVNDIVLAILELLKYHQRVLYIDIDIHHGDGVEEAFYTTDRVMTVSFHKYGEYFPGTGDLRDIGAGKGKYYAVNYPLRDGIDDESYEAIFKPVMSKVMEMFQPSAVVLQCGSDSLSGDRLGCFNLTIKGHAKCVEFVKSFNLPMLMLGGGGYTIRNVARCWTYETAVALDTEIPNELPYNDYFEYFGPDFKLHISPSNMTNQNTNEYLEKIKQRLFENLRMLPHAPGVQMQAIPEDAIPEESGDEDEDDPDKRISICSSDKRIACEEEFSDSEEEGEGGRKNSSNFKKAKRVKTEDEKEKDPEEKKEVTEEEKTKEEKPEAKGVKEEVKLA

SMILES | pIC50 (human recombinant HDAC1) | HDAC6 selectivity (fold) (human recombinant HDAC6) | pIC50 (human recombinant HDAC6)
O=S(=O)(N1CCN(c2ccccn2)CC1)N(Cc1cn2ccc(-c3nnc(C(F)F)o3)cc2n1)c1ccccc1 [Compound 4274, N-((7-(5-(difluoromethyl)-1,3,4-oxadiazol-2-yl)imidazo[1,2-a]pyridin-2-yl)methyl)-N-phenyl-4-(pyridin-2-yl)piperazine-1-sulfonamide] | < 4.30 | 333 | 6.82
CC(C)N1CCN(S(=O)(=O)N(Cc2cn3ccc(-c4nnc(C(F)F)o4)cc3n2)c2ccccc2)CC1 [Compound 4258, N-((7-(5-(difluoromethyl)-1,3,4-oxadiazol-2-yl)imidazo[1,2-a]pyridin-2-yl)methyl)-4-isopropyl-N-phenylpiperazine-1-sulfonamide] | < 4.30 | 500 | 7.00
O=S(=O)(C1CCN(c2ccccn2)CC1)N(Cc1cn2ccc(-c3nnc(C(F)F)o3)cc2n1)c1cccc(F)c1 [Compound 4254, N-((7-(5-(difluoromethyl)-1,3,4-oxadiazol-2-yl)imidazo[1,2-a]pyridin-2-yl)methyl)-N-(3-fluorophenyl)-1-(pyridin-2-yl)piperidine-4-sulfonamide] | < 4.30 | 430 | 6.93
O=S(=O)(N1CCN(c2ncccn2)CC1)N(Cc1cn2ccc(-c3nnc(C(F)F)o3)cc2n1)c1cccc(F)c1 [Compound 4315, N-((7-(5-(difluoromethyl)-1,3,4-oxadiazol-2-yl)imidazo[1,2-a]pyridin-2-yl)methyl)-N-(3-fluorophenyl)-4-(pyrimidin-2-yl)piperazine-1-sulfonamide] | < 4.30 | 309 | 6.79
COC(=O)N1CCC(S(=O)(=O)N(Cc2cn3ccc(-c4nnc(C(F)F)o4)cc3n2)c2cccc(F)c2)CC1 [Compound 4252, methyl 4-(N-((7-(5-(difluoromethyl)-1,3,4-oxadiazol-2-yl)imidazo[1,2-a]pyridin-2-yl)methyl)-N-(3-fluorophenyl)sulfamoyl)piperidine-1-carboxylate] | < 4.30 | 455 | 6.96
O=S(=O)(N1CCN(C2CCC2)CC1)N(Cc1cn2ccc(-c3nnc(C(F)F)o3)cc2n1)c1ccccc1 [Compound 4260, 4-cyclobutyl-N-((7-(5-(difluoromethyl)-1,3,4-oxadiazol-2-yl)imidazo[1,2-a]pyridin-2-yl)methyl)-N-phenylpiperazine-1-sulfonamide] | < 4.30 | 573 | 7.06
CS(=O)(=O)N1CCC(S(=O)(=O)N(Cc2cn3ccc(-c4nnc(C(F)F)o4)cc3n2)c2ccccc2)CC1 [Compound 4225, N-((7-(5-(difluoromethyl)-1,3,4-oxadiazol-2-yl)imidazo[1,2-a]pyridin-2-yl)methyl)-1-(methylsulfonyl)-N-phenylpiperidine-4-sulfonamide] | < 4.30 | 530 | 7.03
O=S(=O)(C1CCN(C2COC2)CC1)N(Cc1cn2ccc(-c3nnc(C(F)F)o3)cc2n1)c1ccccc1 [Compound 3779, N-((7-(5-(difluoromethyl)-1,3,4-oxadiazol-2-yl)imidazo[1,2-a]pyridin-2-yl)methyl)-1-(oxetan-3-yl)-N-phenylpiperidine-4-sulfonamide] | < 4.30 | 321 | 6.81
CCN1CCN(S(=O)(=O)N(Cc2cn3ccc(-c4nnc(C(F)F)o4)cc3n2)c2ccccc2)CC1 [Compound 4257, N-((7-(5-(difluoromethyl)-1,3,4-oxadiazol-2-yl)imidazo[1,2-a]pyridin-2-yl)methyl)-4-ethyl-N-phenylpiperazine-1-sulfonamide] | < 4.30 | 674 | 7.13

Results, then the molecule that gave them:

pIC50 (human recombinant HDAC1) | HDAC6 selectivity (fold) (human recombinant HDAC6) | pIC50 (human recombinant HDAC6) | SMILES
< 4.30 | 241 | 6.68 | CN(C)C(=O)N1CCC(S(=O)(=O)N(Cc2cn3ccc(-c4nnc(C(F)F)o4)cc3n2)c2ccccc2)CC1 [Compound 4227, 4—(N-((7-(5-(difluoromethyl)-1,3,4-oxadiazol-2-yl)imidazo[1,2-a]pyridin-2-yl)methyl)-N-phenylsulfamoyl)-N, N-dimethylpiperidine-1-carboxamide]
< 4.30 | 800 | 7.20 | O=S(=O)(C1CCN(C2CCCCC2)CC1)N(Cc1cn2ccc(-c3nnc(C(F)F)o3)cc2n1)c1cccc(F)c1 [Compound 4242, 1-cyclohexyl-N-((7-(5-(difluoromethyl)-1,3,4-oxadiazol-2-yl)imidazo[1,2-a]pyridin-2-yl)methyl)-N-(3-fluorophenyl)piperidine-4-sulfonamide]
< 4.30 | 299 | 6.78 | O=S(=O)(N1CCN(C2CCCCC2)CC1)N(Cc1cn2ccc(-c3nnc(C(F)F)o3)cc2n1)c1cccc(F)c1 [Compound 4303, 4-cyclohexyl-N-((7-(5-(difluoromethyl)-1,3,4-oxadiazol-2-yl)imidazo[1,2-a]pyridin-2-yl)methyl)-N-(3-fluorophenyl)piperazine-1-sulfonamide]
< 4.30 | 653 | 7.12 | CC(C)N1CCC(S(=O)(=O)N(Cc2cn3ccc(-c4nnc(C(F)F)o4)cc3n2)c2cccc(F)c2)CC1 [Compound 4238, N-((7-(5-(difluoromethyl)-1,3,4-oxadiazol-2-yl)imidazo[1,2-a]pyridin-2-yl)methyl)-N-(3-fluorophenyl)-1-isopropylpiperidine-4-sulfonamide]
< 4.30 | 980 | 7.29 | O=C(CO)N1CCC(S(=O)(=O)N(Cc2cn3ccc(-c4nnc(C(F)F)o4)cc3n2)c2cccc(F)c2)CC1 [Compound 4247, N-((7-(5-(difluoromethyl)-1,3,4-oxadiazol-2-yl)imidazo[1,2-a]pyridin-2-yl)methyl)-N-(3-fluorophenyl)-1-(2-hydroxyacetyl)piperidine-4-sulfonamide]
< 4.30 | 678 | 7.13 | CN1CCC(S(=O)(=O)N(Cc2cn3ccc(-c4nnc(C(F)F)o4)cc3n2)c2cccc(F)c2)CC1 [Compound 4236, N-((7-(5-(difluoromethyl)-1,3,4-oxadiazol-2-yl)imidazo[1,2-a]pyridin-2-yl)methyl)-N-(3-fluorophenyl)-1-methylpiperidine-4-sulfonamide]
< 4.30 | 666 | 7.12 | O=S(=O)(C1CCN(C2CC3(COC3)C2)CC1)N(Cc1cn2ccc(-c3nnc(C(F)F)o3)cc2n1)c1cccc(F)c1 [Compound 4617, N-((7-(5-(difluoromethyl)-1,3,4-oxadiazol-2-yl)imidazo[1,2-a]pyridin-2-yl)methyl)-N-(3-fluorophenyl)-1-(2-oxaspiro[3.3]heptan-6-yl)piperidine-4-sulfonamide]
< 4.30 | 437 | 6.94 | O=C(C1CCC1)N1CCN(S(=O)(=O)N(Cc2cn3ccc(-c4nnc(C(F)F)o4)cc3n2)c2cccc(F)c2)CC1 [Compound 4309, 4-(cyclobutanecarbonyl)-N-((7-(5-(difluoromethyl)-1,3,4-oxadiazol-2-yl)imidazo[1,2-a]pyridine-2-yl)methyl)-N-(3-fluorophenyl)piperazine-1-sulfonamide]
< 4.30 | 715 | 7.16 | O=S(=O)(C1CCN(C2COC2)CC1)N(Cc1cn2ccc(-c3nnc(C(F)F)o3)cc2n1)c1cccc(F)c1 [Compound 4241]
< 4.30 | 486 | 6.99 | O=S(=O)(C1CCN(c2ncccn2)CC1)N(Cc1cn2ccc(-c3nnc(C(F)F)o3)cc2n1)c1ccccc1 [Compound 4228, N-((7-(5-(difluoromethyl)-1,3,4-oxadiazol-2-yl)imidazo[1,2-a]pyridin-2-yl)methyl)-N-phenyl-1-(pyrimidin-2-yl)piperidine-4-sulfonamide]
